Source: publication PMC5218480 (PLoS ONE, 2017)

Test system: MV-4-11 cells
Experiment: Gene expression microarray analysis (Affymetrix PrimeView) and GSEA
Format: cell-based, human
Parameters: RFU PODN (11730768_x_at) / Fold change /veh PODN (11730768_x_at) / RFU LINC00158 (11744669_a_at) / Fold change /veh LINC00158 (11744669_a_at) / RFU DUSP10 (11751237_a_at) / Fold change /veh DUSP10 (11751237_a_at) / RFU ID3 (11757404_x_at) / Fold change /veh ID3 (11757404_x_at) / RFU PLEKHG5 (11737974_s_at) / Fold change /veh PLEKHG5 (11737974_s_at) / RFU LRRC4B (11730491_at) / Fold change /veh LRRC4B (11730491_at) / RFU GIMAP4 (11747438_a_at) / Fold change /veh GIMAP4 (11747438_a_at) / RFU KRT8 (11758183_x_at) / Fold change /veh KRT8 (11758183_x_at) / RFU CNN1 (11734310_a_at) / Fold change /veh CNN1 (11734310_a_at) / RFU VPS37D (11726825_at) / Fold change /veh VPS37D (11726825_at) / RFU C10orf10 (11716522_x_at) / Fold change /veh C10orf10 (11716522_x_at) / RFU KIR2DL2 /// KIR2DL4 /// KIR2DL5A /// KIR2DL5B /// KIR2DS1 /// KIR2DS2 /// KIR2DS3 /// KIR2DS4 /// KIR3DL3 /// KIR3DL3 /// KIR3DS1 (11738374_at) / Fold change /veh KIR2DL2 /// KIR2DL4 /// KIR2DL5A /// KIR2DL5B /// KIR2DS1 /// KIR2DS2 /// KIR2DS3 /// KIR2DS4 /// KIR3DL3 /// KIR3DL3 /// KIR3DS1 (11738374_at) / RFU C1QL1 (11718748_at) / Fold change /veh C1QL1 (11718748_at) / RFU TMPRSS4 (11747572_a_at) / Fold change /veh TMPRSS4 (11747572_a_at) / RFU HAMP (11756126_x_at) / Fold change /veh HAMP (11756126_x_at) / RFU RNFT2 (11725882_a_at) / Fold change /veh RNFT2 (11725882_a_at) / RFU NR4A2 (11747474_a_at) / Fold change /veh NR4A2 (11747474_a_at) / RFU ABCC12 (11746883_a_at) / Fold change /veh ABCC12 (11746883_a_at) / RFU TMEM136 (11760407_x_at) / Fold change /veh TMEM136 (11760407_x_at) / RFU CLDN22 /// WWC2 (11732394_at) / Fold change /veh CLDN22 /// WWC2 (11732394_at) / RFU HLA-DPB1 (11760878_x_at) / Fold change /veh HLA-DPB1 (11760878_x_at) / RFU SPINT1 (11716480_a_at) / Fold change /veh SPINT1 (11716480_a_at) / RFU GAP43 (11754022_s_at) / Fold change /veh GAP43 (11754022_s_at) / RFU A4GNT (11735810_at) / Fold change /veh A4GNT (11735810_at) / RFU PRB3 (11715151_x_at) / Fold change /veh PRB3 (11715151_x_at) / RFU TUBB4B (11761932_at) / Fold change /veh TUBB4B (11761932_at) / RFU CAPN14 (11732068_a_at) / Fold change /veh CAPN14 (11732068_a_at) / RFU TMCC2 (11721928_a_at) / Fold change /veh TMCC2 (11721928_a_at) / RFU IRGQ (11745062_a_at) / Fold change /veh IRGQ (11745062_a_at) / RFU FAM174B (11720279_a_at) / Fold change /veh FAM174B (11720279_a_at) / RFU TMPRSS4 (11748680_a_at) / Fold change /veh TMPRSS4 (11748680_a_at) / RFU FAM212B (11763350_a_at) / Fold change /veh FAM212B (11763350_a_at) / RFU PLEKHG5 (11743358_a_at) / Fold change /veh PLEKHG5 (11743358_a_at) / RFU ZSCAN30 (11745921_a_at) / Fold change /veh ZSCAN30 (11745921_a_at) / RFU CMKLR1 (11741424_a_at) / Fold change /veh CMKLR1 (11741424_a_at) / RFU LOC101060620 /// MAPK8IP1 (11723275_at) / Fold change /veh LOC101060620 /// MAPK8IP1 (11723275_at) / RFU SPTSSB (11747773_x_at) / Fold change /veh SPTSSB (11747773_x_at) / RFU PRSS12 (11739890_at) / Fold change /veh PRSS12 (11739890_at) / RFU BIN1 (11741810_x_at) / Fold change /veh BIN1 (11741810_x_at) / RFU WNT11 (11732464_a_at) / Fold change /veh WNT11 (11732464_a_at) / RFU C10orf10 (11716521_a_at) / Fold change /veh C10orf10 (11716521_a_at) / RFU C5orf56 (11738089_at) / Fold change /veh C5orf56 (11738089_at) / RFU CYB561 (11721691_x_at) / Fold change /veh CYB561 (11721691_x_at) / RFU ANKRD19P (11752326_a_at) / Fold change /veh ANKRD19P (11752326_a_at) / RFU OR2T12 /// OR2T33 /// OR2T8 (11738714_s_at) / Fold change /veh OR2T12 /// OR2T33 /// OR2T8 (11738714_s_at) / RFU VCAN (11748164_a_at) / Fold change /veh VCAN (11748164_a_at) / RFU JSRP1 (11732532_at) / Fold change /veh JSRP1 (11732532_at) / RFU KRTAP10-11 (11738290_x_at) / Fold change /veh KRTAP10-11 (11738290_x_at) / RFU MYO3A (11730013_a_at) / Fold change /veh MYO3A (11730013_a_at) / RFU EBF3 (11725865_a_at) / Fold change /veh EBF3 (11725865_a_at) / RFU CAMK2N1 (11719241_x_at) / Fold change /veh CAMK2N1 (11719241_x_at) / RFU C5orf56 (11738088_a_at) / Fold change /veh C5orf56 (11738088_a_at) / RFU OLFML3 (11715873_a_at) / Fold change /veh OLFML3 (11715873_a_at) / RFU LOC100653217 /// NTM (11731650_a_at) / Fold change /veh LOC100653217 /// NTM (11731650_a_at) / RFU MAPK11 (11762145_a_at) / Fold change /veh MAPK11 (11762145_a_at) / RFU FIZ1 (11724087_x_at) / Fold change /veh FIZ1 (11724087_x_at) / RFU OASL (11726364_x_at) / Fold change /veh OASL (11726364_x_at) / RFU SOX15 (11748057_x_at) / Fold change /veh SOX15 (11748057_x_at) / RFU CD79A (11719716_a_at) / Fold change /veh CD79A (11719716_a_at) / RFU HIST1H1D (11736915_at) / Fold change /veh HIST1H1D (11736915_at) / RFU CASKIN2 (11723855_a_at) / Fold change /veh CASKIN2 (11723855_a_at) / RFU LOC730098 (11760151_x_at) / Fold change /veh LOC730098 (11760151_x_at) / RFU OR4N2 (11742367_at) / Fold change /veh OR4N2 (11742367_at) / RFU PRRT2 (11749266_a_at) / Fold change /veh PRRT2 (11749266_a_at) / RFU SNX32 (11753110_a_at) / Fold change /veh SNX32 (11753110_a_at) / RFU CDHR5 (11726645_a_at) / Fold change /veh CDHR5 (11726645_a_at) / RFU RCAN1 (11760418_a_at) / Fold change /veh RCAN1 (11760418_a_at) / RFU FAM167A (11723789_a_at) / Fold change /veh FAM167A (11723789_a_at) / RFU FAM26E (11764081_at) / Fold change /veh FAM26E (11764081_at) / RFU ISYNA1 (11749810_s_at) / Fold change /veh ISYNA1 (11749810_s_at) / RFU ACY1 (11761880_at) / Fold change /veh ACY1 (11761880_at) / RFU 11764098_at / Fold change /veh 11764098_at / RFU SAMD14 (11745864_x_at) / Fold change /veh SAMD14 (11745864_x_at) / RFU NPB (11741838_a_at) / Fold change /veh NPB (11741838_a_at) / RFU TMPRSS6 (11731388_a_at) / Fold change /veh TMPRSS6 (11731388_a_at) / RFU KRTAP10-2 (11738614_at) / Fold change /veh KRTAP10-2 (11738614_at) / RFU ARHGAP8 /// PRR5-ARHGAP8 (11727945_x_at) / Fold change /veh ARHGAP8 /// PRR5-ARHGAP8 (11727945_x_at) / RFU KRTAP5-7 /// NADSYN1 (11734609_at) / Fold change /veh KRTAP5-7 /// NADSYN1 (11734609_at) / RFU RASL12 (11751679_a_at) / Fold change /veh RASL12 (11751679_a_at) / RFU CDKN2B (11736163_a_at) / Fold change /veh CDKN2B (11736163_a_at) / RFU PRF1 (11729649_at) / Fold change /veh PRF1 (11729649_at) / RFU, ZNF638 /// ZNF638-IT1 / Fold change vs veh, ZNF638 /// ZNF638-IT1 / RFU, PANK3 / Fold change vs veh, PANK3 / RFU, SH3YL1 / Fold change vs veh, SH3YL1 / RFU, ZEB2 / Fold change vs veh, ZEB2 / RFU, NRIP1 / Fold change vs veh, NRIP1 / RFU, PTTG1IP / Fold change vs veh, PTTG1IP / RFU, CAPN2 / Fold change vs veh, CAPN2 / RFU, MED14 / Fold change vs veh, MED14 / RFU, SNORA58 / Fold change vs veh, SNORA58 / RFU, C1orf63 / Fold change vs veh, C1orf63 / RFU, LRRFIP1 / Fold change vs veh, LRRFIP1 / RFU, NDUFAF7 / Fold change vs veh, NDUFAF7 / RFU, SLC12A2 / Fold change vs veh, SLC12A2 / RFU, IBTK / Fold change vs veh, IBTK / RFU, ESF1 / Fold change vs veh, ESF1 / Fold change vs veh, TMEM50B / RFU, TAOK1 / Fold change vs veh, TAOK1 / RFU, ACBD3 / Fold change vs veh, ACBD3 / RFU, TMA16 / Fold change vs veh, TMA16 / RFU, RWDD3 / Fold change vs veh, RWDD3 / RFU, BCAT1 / Fold change vs veh, BCAT1 / RFU, EDEM3 / Fold change vs veh, EDEM3 / RFU, TMEM33 / Fold change vs veh, TMEM33 / RFU, WDR75 / Fold change vs veh, WDR75 / RFU, AHCTF1 / Fold change vs veh, AHCTF1 / RFU, TFRC / Fold change vs veh, TFRC / RFU, ZDHHC17 / Fold change vs veh, ZDHHC17 / RFU, NOM1 / Fold change vs veh, NOM1 / RFU, ARL8B / Fold change vs veh, ARL8B / RFU, ZBTB11 / Fold change vs veh, ZBTB11 / RFU, TAMM41 / Fold change vs veh, TAMM41 / RFU, KIAA1704 /// LOC100996395 / Fold change vs veh, KIAA1704 /// LOC100996395 / RFU, ING1 / Fold change vs veh, ING1 / RFU, TRMT61B / Fold change vs veh, TRMT61B / RFU, FUBP3 / Fold change vs veh, FUBP3 / RFU, TP53 / Fold change vs veh, TP53 / RFU, TNKS2 / Fold change vs veh, TNKS2 / RFU, ZFP14 / Fold change vs veh, ZFP14 / RFU, ACTR2 / Fold change vs veh, ACTR2 / RFU, PPP3R1 / Fold change vs veh, PPP3R1 / RFU, PIK3R1 / Fold change vs veh, PIK3R1 / RFU, HNRNPA1 / Fold change vs veh, HNRNPA1 / RFU, RNF170 / Fold change vs veh, RNF170 / RFU, ZNF28 / Fold change vs veh, ZNF28 / RFU, RNGTT / Fold change vs veh, RNGTT / RFU, OGT / Fold change vs veh, OGT / RFU, BRD1 / Fold change vs veh, BRD1 / RFU, MARS / Fold change vs veh, MARS / RFU, ZNF655 / Fold change vs veh, ZNF655 / RFU, FAHD1 / Fold change vs veh, FAHD1 / RFU, BDP1 / Fold change vs veh, BDP1 / RFU, LRRCC1 / Fold change vs veh, LRRCC1 / RFU, ARID1A / Fold change vs veh, ARID1A / RFU, ZNF146 / Fold change vs veh, ZNF146 / RFU, ZNF330 / Fold change vs veh, ZNF330 / RFU, GPN3 / Fold change vs veh, GPN3 / RFU, C9orf123 / Fold change vs veh, C9orf123 / RFU, N4BP2L2 / Fold change vs veh, N4BP2L2 / RFU, ARFIP1 / Fold change vs veh, ARFIP1 / RFU, FAM179B / Fold change vs veh, FAM179B / RFU, BCL10 / Fold change vs veh, BCL10 / RFU, UHRF1BP1L / Fold change vs veh, UHRF1BP1L / RFU, BET1 / Fold change vs veh, BET1 / RFU, CNOT2 / Fold change vs veh, CNOT2 / RFU, ZNF268 / Fold change vs veh, ZNF268 / Fold change vs veh, ZNF507 / RFU, DGCR2 / Fold change vs veh, DGCR2 / RFU, WDSUB1 / Fold change vs veh, WDSUB1 / Fold change vs veh, HSP90B1 /// MIR3652 / RFU, ADSS / Fold change vs veh, ADSS / RFU, GK / Fold change vs veh, GK / RFU, ZNF148 / Fold change vs veh, ZNF148 / RFU, TAF9 / Fold change vs veh, TAF9 / RFU, SLC1A5 / Fold change vs veh, SLC1A5 / RFU, SLMO2 / Fold change vs veh, SLMO2 / RFU, ABCC4 / Fold change vs veh, ABCC4 / RFU, LOC101060439 /// RAP1B / Fold change vs veh, LOC101060439 /// RAP1B / RFU, RFX7 / Fold change vs veh, RFX7 / RFU, GTPBP10 / Fold change vs veh, GTPBP10 / RFU, CNEP1R1 / Fold change vs veh, CNEP1R1 / RFU, BIVM-ERCC5 /// ERCC5 / Fold change vs veh, BIVM-ERCC5 /// ERCC5 / RFU, ILF3 / Fold change vs veh, ILF3 / RFU 11762660_at / Fold change /veh 11762660_at / RFU VCAN (11757783_s_at) / Fold change /veh VCAN (11757783_s_at) / RFU DDX43 (11728927_at) / Fold change /veh DDX43 (11728927_at) / RFU KRT8 (11758188_x_at) / Fold change /veh KRT8 (11758188_x_at) / RFU NKD1 (11759106_at) / Fold change /veh NKD1 (11759106_at) / RFU SRD5A1 (11742802_a_at) / Fold change /veh SRD5A1 (11742802_a_at) / RFU TPSAB1 /// TPSB2 (11721975_s_at) / Fold change /veh TPSAB1 /// TPSB2 (11721975_s_at) / RFU GSTM3 (11746129_a_at) / Fold change /veh GSTM3 (11746129_a_at) / RFU IL23R (11737362_x_at) / Fold change /veh IL23R (11737362_x_at) / RFU TMEM51 (11727254_a_at) / Fold change /veh TMEM51 (11727254_a_at) / RFU PIWIL2 (11732686_x_at) / Fold change /veh PIWIL2 (11732686_x_at) / RFU ORM1 (11744905_x_at) / Fold change /veh ORM1 (11744905_x_at) / RFU CCDC152 (11743942_at) / Fold change /veh CCDC152 (11743942_at) / RFU ECM1 (11717891_a_at) / Fold change /veh ECM1 (11717891_a_at) / RFU IL23R (11748794_a_at) / Fold change /veh IL23R (11748794_a_at) / RFU TNFAIP8L3 (11732012_x_at) / Fold change /veh TNFAIP8L3 (11732012_x_at) / RFU MBOAT4 (11741988_at) / Fold change /veh MBOAT4 (11741988_at) / RFU 11764193_at / Fold change /veh 11764193_at / RFU TMEM53 (11763286_at) / Fold change /veh TMEM53 (11763286_at) / RFU MAGEB2 (11727129_at) / Fold change /veh MAGEB2 (11727129_at) / RFU TMEM200A (11744735_a_at) / Fold change /veh TMEM200A (11744735_a_at) / RFU CCDC152 (11751479_a_at) / Fold change /veh CCDC152 (11751479_a_at) / RFU FAM211A (11726209_a_at) / Fold change /veh FAM211A (11726209_a_at) / RFU RGS16 (11746705_a_at) / Fold change /veh RGS16 (11746705_a_at) / RFU VCAN (11755009_s_at) / Fold change /veh VCAN (11755009_s_at) / RFU RHOB (11743442_s_at) / Fold change /veh RHOB (11743442_s_at) / RFU RGS16 (11720943_a_at) / Fold change /veh RGS16 (11720943_a_at) / RFU RGS16 (11720944_at) / Fold change /veh RGS16 (11720944_at) / RFU, VPS4B / Fold change vs veh, VPS4B / RFU, CREB1 / Fold change vs veh, CREB1 / RFU, DNAJC13 / Fold change vs veh, DNAJC13 / RFU, GNAQ / Fold change vs veh, GNAQ / RFU, CDK5R1 / Fold change vs veh, CDK5R1 / RFU, ZRANB3 / Fold change vs veh, ZRANB3 / RFU, CUL4A / Fold change vs veh, CUL4A / RFU, CCNY / Fold change vs veh, CCNY / RFU, UFL1 / Fold change vs veh, UFL1 / RFU, COG3 / Fold change vs veh, COG3 / RFU, DIAPH2 / Fold change vs veh, DIAPH2 / RFU, SKA2 / Fold change vs veh, SKA2 / RFU, AFF3 / Fold change vs veh, AFF3 / RFU, LMF1 / Fold change vs veh, LMF1 / RFU, IPO11 / Fold change vs veh, IPO11 / RFU, DFFB / Fold change vs veh, DFFB / RFU, FOXP1 / Fold change vs veh, FOXP1 / RFU, CARD8 / Fold change vs veh, CARD8 / RFU, STRN3 / Fold change vs veh, STRN3 / RFU, ADK / Fold change vs veh, ADK / RFU, RASSF2 / Fold change vs veh, RASSF2 / RFU, WIPF1 / Fold change vs veh, WIPF1 / RFU, LARP1B / Fold change vs veh, LARP1B / RFU, RASA1 / Fold change vs veh, RASA1 / RFU, RB1 / Fold change vs veh, RB1 / RFU, PPFIA1 / Fold change vs veh, PPFIA1 / RFU, MAT2A / Fold change vs veh, MAT2A / RFU, CCT5 / Fold change vs veh, CCT5 / RFU, WDR92 / Fold change vs veh, WDR92 / RFU, CUX1 / Fold change vs veh, CUX1 / RFU, TTC7A / Fold change vs veh, TTC7A / RFU, TMEM135 / Fold change vs veh, TMEM135 / RFU, DEPTOR / Fold change vs veh, DEPTOR / RFU, CPM / Fold change vs veh, CPM / RFU, DNAJB6 / Fold change vs veh, DNAJB6 / RFU, CACNA2D3 / Fold change vs veh, CACNA2D3 / RFU, DTX4 / Fold change vs veh, DTX4 / RFU, TFCP2 / Fold change vs veh, TFCP2 / RFU, GMCL1 /// GMCL1P1 / Fold change vs veh, GMCL1 /// GMCL1P1 / RFU, AEBP2 / Fold change vs veh, AEBP2 / RFU, SNHG1 /// SNORD22 /// SNORD25 /// SNORD26 /// SNORD27 /// SNORD28 /// SNORD29 /// SNORD31 / Fold change vs veh, SNHG1 /// SNORD22 /// SNORD25 /// SNORD26 /// SNORD27 /// SNORD28 /// SNORD29 /// SNORD31 / Fold change (Aza/veh), C12orf56 (ProbeSet 11735607_a_at) / Fold change (ACY-1035/veh), C12orf56 (ProbeSet 11735607_a_at) / Fold change (Aza/veh), FGFR1OP (ProbeSet 11751329_s_at) / Fold change (ACY-1035/veh), FGFR1OP (ProbeSet 11751329_s_at) / Fold change (Aza/veh), VPS36 (ProbeSet 11739960_a_at) / Fold change (ACY-1035/veh), VPS36 (ProbeSet 11739960_a_at) / RFU SYPL1 (11715823_x_at) / Fold change /veh SYPL1 (11715823_x_at) / RFU IGFBP7 (11715501_s_at) / Fold change /veh IGFBP7 (11715501_s_at) / RFU REEP3 (11722064_at) / Fold change /veh REEP3 (11722064_at) / RFU IGLL1 (11728026_x_at) / Fold change /veh IGLL1 (11728026_x_at): dose or concentration left out as unconfirmed
Conditions: ProbeSet 11748335_a_at; LIST B

## Nc1ccc(-c2cccs2)cc1NC(=O)c1ccc2c(c1)cc(C1CC1)n2CCN1CCOCC1 [ACY-1035]
  RFU, SLMO2: 145.26 RFU
